The values that follow come from patent US8063099B2, “Trans-3-aza-bicyclo[3.1.0]hexane derivatives” (Actelion Pharmaceuticals Ltd., priority 2007, dated 2011).

Read-outs that look alike come from different tables or passages of the source.

The IC50 is the concentration that gives 50% inhibition.

The target in assay [1] is T1, human orexin-1 receptor (Homo sapiens, UniProt O43613).
T1 construct: expressed in transfected cells; host or cells: Chinese hamster ovary (CHO) cells, G418 selection
T1 sequence (O43613 1-425): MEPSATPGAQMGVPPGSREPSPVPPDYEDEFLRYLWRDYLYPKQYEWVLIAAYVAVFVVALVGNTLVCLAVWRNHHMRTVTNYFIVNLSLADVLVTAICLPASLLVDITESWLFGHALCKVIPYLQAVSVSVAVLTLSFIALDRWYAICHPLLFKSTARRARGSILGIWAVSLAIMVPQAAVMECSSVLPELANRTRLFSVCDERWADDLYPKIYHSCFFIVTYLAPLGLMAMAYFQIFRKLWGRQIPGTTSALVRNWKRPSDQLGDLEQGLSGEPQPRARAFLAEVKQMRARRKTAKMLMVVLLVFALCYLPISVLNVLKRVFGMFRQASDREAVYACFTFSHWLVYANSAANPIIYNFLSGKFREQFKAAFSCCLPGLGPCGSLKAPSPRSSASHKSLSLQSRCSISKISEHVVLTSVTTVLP
Nature of the assay: Intracellular calcium measurements (FLIPR), orexin receptor antagonistic activity. It is filed as cell-based. The settings on record: FLIPR Tetra, CHO cells expressing human orexin-1 receptor, 3 nM orexin-A, read-out: OX1 IC50. The protocol: (§1) The orexin receptor antagonistic activity of the compounds of formula (I) is determined in accordance with one of the following experimental methods.
(§2) Intracellular Calcium Measurements:
(§3) Chinese hamster ovary (CHO) cells expressing the human orexin-1 receptor and the human orexin-2 receptor, respectively, are grown in culture medium (Ham F-12 with L-Glutamine) containing 300 μg/ml G418, 100 U/ml penicillin, 100 μg/ml streptomycin and 10% heat inactivated fetal calf serum (FCS). The cells are seeded at 20'000 cells/well into 384-well black clear bottom sterile plates (Greiner). The seeded plates are incubated overnight at 37° C. in 5% CO2.
(§4) Human orexin-A as an agonist is prepared as 1 mM stock solution in MeOH:water (1:1), diluted in HBSS containing 0.1% bovine serum albumin (BSA), NaHCO3:0.375 g/l and 20 mM HEPES for use in the assay at a final concentration of 3 nM.
(§5) Antagonists are prepared as 10 mM stock solution in DMSO, then diluted in 384-well plates, first in DMSO, then in HBSS containing 0.1% bovine serum albumin (BSA), NaHCO3: 0.375 g/l and 20 mM HEPES.
(§6) On the day of the assay, 50 μl of staining buffer (HBSS containing 1% FCS, 20 mM HEPES, NaHCO3: 0.375 g/l, 5 mM probenecid (Sigma) and 3 μM of the fluorescent calcium indicator fluo-4 AM (1 mM stock solution in DMSO, containing 10% pluronic) is added to each well.
(§7) The 384-well cell-plates are incubated for 50 min at 37° C. in 5% CO2 followed by equilibration at RT for 30-120 min before measurement.
(§8) Within the Fluorescent Imaging Plate Reader (FLIPR2 or FLIPR Tetra, Molecular Devices), antagonists are added to the plate in a volume of 10 μl/well, incubated for 10 min and finally 10 μl/well of agonist is added. Fluorescence is measured for each well at 1 second intervals, and the height of each fluorescence peak is compared to the height of the fluorescence peak induced by 3 nM orexin-A with vehicle in place of antagonist. For each antagonist, the IC50 value (the concentration of compound needed to inhibit 50% of the agonistic response) is determined. With the FLIPR Tetra, non-optimized and optimized conditions were used. Optimized conditions were achieved by adjustment of pipetting speed and cell splitting regime. The calculated IC50 values of the compounds may fluctuate depending on the daily cellular assay performance. Fluctuations of this kind are known to those skilled in the art.
A general note: A change in cytosolic calcium serves as a functional read-out for many receptors and channels.

The target in assay [2] is T2, human orexin-2 receptor (Homo sapiens, UniProt O43614).
T2 construct: expressed in transfected cells; host or cells: Chinese hamster ovary (CHO) cells, G418 selection
T2 sequence (O43614 1-444): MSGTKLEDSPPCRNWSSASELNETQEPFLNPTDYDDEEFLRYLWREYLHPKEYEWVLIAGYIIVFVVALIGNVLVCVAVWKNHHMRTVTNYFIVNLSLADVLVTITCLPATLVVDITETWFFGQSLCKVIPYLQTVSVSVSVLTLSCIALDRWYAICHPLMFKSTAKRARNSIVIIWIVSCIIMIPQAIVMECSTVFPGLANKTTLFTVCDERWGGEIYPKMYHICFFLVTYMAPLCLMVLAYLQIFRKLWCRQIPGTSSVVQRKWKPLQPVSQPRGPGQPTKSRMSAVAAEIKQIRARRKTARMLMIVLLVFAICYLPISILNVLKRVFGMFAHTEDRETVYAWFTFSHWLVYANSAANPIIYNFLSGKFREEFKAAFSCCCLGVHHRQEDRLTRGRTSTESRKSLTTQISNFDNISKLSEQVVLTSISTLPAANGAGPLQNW
The description is as above. The class given is cell-based. The settings on record: FLIPR Tetra, CHO cells expressing human orexin-2 receptor, 3 nM orexin-A, read-out: OX2 IC50. The procedure:
as §1, §2, §3, §4, §5, §6, §7, §8

For the compound `CCn1nc(C)cc1C(=O)NC[C@@H]1[C@H]2C[C@H]2CN1C(=O)c1nc(C2CC2)sc1-c1cccc(C)c1` [Example 237, 2-Ethyl-5-methyl-2H-pyrazole-3-carboxylic acid [(1S,2S,5R)-3-(2-cyclopropyl-5-m-tolyl-thiazole-4-carbonyl)-3-aza-bicyclo[3.1.0]hex-2-ylmethyl]-amide], the IC50 in assay [1] (optimized conditions) is 29 nM; in assay [2] (optimized conditions), 38 nM.
As for `Cc1cccc(-c2sc(C)nc2C(=O)N2C[C@@H]3C[C@@H]3[C@H]2CNc2ncc(Br)cn2)c1` [Example 244, {(1S,2S,5R)-2-[(5-Bromo-pyrimidin-2-ylamino)-methyl]-3-aza-bicyclo[3.1.0]hex-3-yl}-(2-methyl-5-m-tolyl-thiazol-4-yl)-methanone], the half-inhibitory concentration (IC50) in assay [1] (non-optimized conditions) was 51 nM; in assay [2] (non-optimized conditions) it was 639 nM.
For `Cc1nc(C(=O)N2C[C@@H]3C[C@@H]3[C@H]2CNc2ncc(Br)cn2)c(-c2ccc(C)c(F)c2)s1` [Example 252, {(1S,2S,5R)-2-[(5-Bromo-pyrimidin-2-ylamino)-methyl]-3-aza-bicyclo[3.1.0]hex-3-yl}-[5-(3-fluoro-4-methyl-phenyl)-2-methyl-thiazol-4-yl]-methanone], the IC50 in assay [1] (non-optimized conditions) stood at 79 nM; in assay [2] (non-optimized conditions), 350 nM.
Consider `Cc1cccc(-c2sc(C)nc2C(=O)N2C[C@@H]3C[C@@H]3[C@H]2CNC(=O)c2cccc3nc(C)oc23)c1` [Example 256, 2-Methyl-benzoxazole-7-carboxylic acid [(1S,2S,5R)-3-(2-methyl-5-m-tolyl-thiazole-4-carbonyl)-3-aza-bicyclo[3.1.0]hex-2-ylmethyl]-amide], for which the IC50 was 64 nM in assay [1] (optimized conditions) and 55 nM in assay [2] (optimized conditions).
In the case of `Cc1cccc(-c2sc(C)nc2C(=O)N2C[C@@H]3C[C@@H]3[C@H]2CNC(=O)c2ccn3ccsc23)c1` [Example 260, Pyrrolo[2,1-b]thiazole-7-carboxylic acid [(1S,2S,5R)-3-(2-methyl-5-m-tolyl-thiazole-4-carbonyl)-3-aza-bicyclo[3.1.0]hex-2-ylmethyl]-amide], the IC50 came to 16 nM in assay [1] (optimized conditions) and 31 nM in assay [2] (optimized conditions).
Take `Cc1ccc(-c2sccc2C(=O)N2C[C@@H]3C[C@@H]3[C@H]2CNC(=O)c2cccc3c2NCCO3)cc1` [Example 266, 3,4-Dihydro-2H-benzo[1,4]oxazine-5-carboxylic acid [(1S,2S,5R)-3-(2-p-tolyl-thiophene-3-carbonyl)-3-aza-bicyclo[3.1.0]hex-2-ylmethyl]-amide]: the IC50 amounted to 65 nM in assay [1] (optimized conditions) and 19 nM in assay [2] (optimized conditions).
Take `Cc1ccc(-c2sccc2C(=O)N2C[C@@H]3C[C@@H]3[C@H]2CNC(=O)c2cccc3nsnc23)cc1` [Example 274, Benzo[2,1,3]thiadiazole-4-carboxylic acid [(1S,2S,5R)-3-(2-p-tolyl-thiophene-3-carbonyl)-3-aza-bicyclo[3.1.0]hex-2-ylmethyl]-amide]: the half-maximal inhibitory concentration (IC50) stood at 58 nM in assay [1] (optimized conditions) and 55 nM in assay [2] (optimized conditions).
For `Cc1cccc(-c2sccc2C(=O)N2C[C@@H]3C[C@@H]3[C@H]2CNC(=O)c2cc3occc3n2C)c1` [Example 282, 4-Methyl-4H-furo[3,2-b]pyrrole-5-carboxylic acid [(1S,2S,5R)-3-(2-m-tolyl-thiophene-3-carbonyl)-3-aza-bicyclo[3.1.0]hex-2-ylmethyl]-amide], in that order: 117 nM and 32 nM.
Turning to `Cc1cccc(-c2sccc2C(=O)N2C[C@@H]3C[C@@H]3[C@H]2CNC(=O)c2cccc3oc(C)nc23)c1` [Example 297, 2-Methyl-benzoxazole-4-carboxylic acid [(1S,2S,5R)-3-(2-m-tolyl-thiophene-3-carbonyl)-3-aza-bicyclo[3.1.0]hex-2-ylmethyl]-amide], the half-maximal inhibitory concentration (IC50) was 83 nM in assay [1] (optimized conditions) and 16 nM in assay [2] (optimized conditions).
For `Cc1cccc(-c2sc(C)nc2C(=O)N2C[C@@H]3C[C@@H]3[C@H]2CNC(=O)c2cccc3sc(Cl)nc23)c1` [Example 299, 2-Chloro-benzothiazole-4-carboxylic Acid[(1S,2S,5R)-3-(2-methyl-5-m-tolyl-thiazole-4-carbonyl)-3-aza-bicyclo[3.1.0]hex-2-ylmethyl]-amide], the IC50 in assay [1] (optimized conditions) is 28 nM; in assay [2] (optimized conditions), 14 nM.
